Experimental data: PMC3531619 (Angewandte Chemie (International Ed. in English), 2012)
Where no end group is shown, it is not given here. [ ]: non-standard residue; d: D form. Bpa = N[C@@H](Cc1ccc(C(=O)c2ccccc2)cc1)C(=O)O

Assays:
[1] = system: U2OS cells; assay: Cell viability assay; type: cell-based, human; details: conditions of the in-cell experiments
[2] = system: PP2A; assay: Streptavidin pull-down of PP2A with biotinylated peptides from cell lysates; type: binding, human; details: U2OS cell lysates, streptavidin beads, immunoblot
[3] = system: PP1; assay: Streptavidin pull-down of PP1 with biotinylated peptides from cell lysates; type: binding, human; details: HEK293 and U2OS cell lysates, streptavidin-coated Sepharose beads, immunoblot

Row | Substance | Cytotoxicity under the experimental conditions [1] | Co-precipitation of PP2A in pull-down [2] | Co-sedimentation of PP1 in pull-down [3]
1 | RRKRPKRKRKNARATA[Bpa]EAAEII [PDP3m] | neither PDP3 nor PDP3m showed any cytotoxicity |  | 
2 | RRKRPKRKRKNARATAAEAAEII [PDP2m] |  | co-precipitated neither PP1 nor PP2A | co-precipitated neither PP1 nor PP2A
